Source: patent publication US20040058952A1, “Urease inhibitors” (Otsuka Pharmaceutical Co., Ltd., priority 2000, published 2004)

Key:
[1] = test system: Helicobacter pylori ATCC 43504; assay: Anti-Helicobacter pylori activity test (dilution method); assay type: cell-based; conditions: H. pylori ATCC 43504, 3 days culture, OD660nm; compared with metronidazole (MN), FIG. 3
Description: An anti-Helicobacter pylori activity test of the compound as an active ingredient of the present invention was conducted in the following procedure using a dilution method. Helicobacter pylori ATCC 43504 strains were innoculated in a medium in petri dish (Brucella agar (BECTON […]), containing 7% FBS) and then cultured in a mixed carbonic acid gas-nitrogen gas culture medium (10% CO2, 5% O2, 85% N2, 37° C.) for 2 days. The strains were recovered, cultured similarly in a liquid medium using a Brucella broth (BECTON […]) for one day and then diluted with the same medium to control […] to 0.1. The test compound was dissolved in 50% ethanol-saline to prepare a 1 mg/ml solution and the solution was 1- to 2048-fold diluted by 12 steps with the same medium to prepare dilution series. In each well of cell culture plate (20 μl/well), each step wisely diluted solution (20 μl) of the test compound was charged and a Brucella medium (containing 7% FBS) (160 μl) was added, and then a pylori strain solution (20 μl) was finally added.

[2] = target: T1, jack bean urease (Canavalia ensiformis, UniProt P07374); assay: Urease activity inhibition test (13C-urea, 13C-NMR), jack bean urease; assay type: biochemical
T1 construct: purchased
Description: Using ^13C-urea as a substrate, the amount of urea, which is eliminated due to the urease enzyme reaction, was measured with a lapse of time by means of ^13C-NMR. On the basis of an elimination rate (M/sec) of ^13C-urea in the absence of the urease inhibitor sample, the case where the elimination rate in the presence of the sample is reduced to half was calculated as IC50 of the sample. […]
Each sample was inserted into a probe and the enzyme reaction was conducted at the reaction temperature (temperature of the probe) of 20° C. and the measurement was conducted every 20 seconds after 1 to 4 minutes have passed since the beginning of the reaction, while the measurement was conducted every one minute after 4 or more minutes have passed, using a ^13C-NMR apparatus. Consequently, an elimination rate (M/sec) of a signal (165 ppm) of ^13C-urea as the substrate was determined. […]
Using the respective compounds obtained in Reference Examples 2 to 5 as the test compound, the same test (using the jack bean urease) was repeated and IC50 of each test compounds was determined, thus calculating a relative urease inhibitory activity value relative to a standard (1) for the same value of BIT. […]

[3] = target: Helicobacter pylori urease (Helicobacter pylori, UniProt P69996); assay: Urease activity inhibition test (13C-urea, 13C-NMR), Helicobacter pylori urease; assay type: biochemical
Description: Using ^13C-urea as a substrate, the amount of urea, which is eliminated due to the urease enzyme reaction, was measured with a lapse of time by means of ^13C-NMR. On the basis of an elimination rate (M/sec) of ^13C-urea in the absence of the urease inhibitor sample, the case where the elimination rate in the presence of the sample is reduced to half was calculated as IC50 of the sample.
(Preparation of sample) In a NMR tube having a diameter of 5 mm, Helicobacter pylori urease (manufactured by OTSUKA PHARMACEUTICAL CO., 1.6 units) dissolved in 500 μof a mixed solvent (pH 7) of 400 μl of 0.1M phosphate buffer (pH 7) and 100 μl of DMSO was added and each test compound (urease inhibitor sample) dissolved in 100 μl of ethanol was added, followed by standing at 20° C. for 30 minutes and further standing on an ice bath for 10 minutes. […]
Each sample was inserted into a probe and the enzyme reaction was conducted at the reaction temperature (temperature of the probe) of 20° C. and the measurement was conducted every 20 seconds after 1 to 4 minutes have passed since the beginning of the reaction, while the measurement was conducted every one minute after 4 or more minutes have passed, using a ^13C-NMR apparatus. Consequently, an elimination rate (M/sec) of a signal (165 ppm) of ^13C-urea as the substrate was determined.

T1 sequence (P07374 whole entry, looked up): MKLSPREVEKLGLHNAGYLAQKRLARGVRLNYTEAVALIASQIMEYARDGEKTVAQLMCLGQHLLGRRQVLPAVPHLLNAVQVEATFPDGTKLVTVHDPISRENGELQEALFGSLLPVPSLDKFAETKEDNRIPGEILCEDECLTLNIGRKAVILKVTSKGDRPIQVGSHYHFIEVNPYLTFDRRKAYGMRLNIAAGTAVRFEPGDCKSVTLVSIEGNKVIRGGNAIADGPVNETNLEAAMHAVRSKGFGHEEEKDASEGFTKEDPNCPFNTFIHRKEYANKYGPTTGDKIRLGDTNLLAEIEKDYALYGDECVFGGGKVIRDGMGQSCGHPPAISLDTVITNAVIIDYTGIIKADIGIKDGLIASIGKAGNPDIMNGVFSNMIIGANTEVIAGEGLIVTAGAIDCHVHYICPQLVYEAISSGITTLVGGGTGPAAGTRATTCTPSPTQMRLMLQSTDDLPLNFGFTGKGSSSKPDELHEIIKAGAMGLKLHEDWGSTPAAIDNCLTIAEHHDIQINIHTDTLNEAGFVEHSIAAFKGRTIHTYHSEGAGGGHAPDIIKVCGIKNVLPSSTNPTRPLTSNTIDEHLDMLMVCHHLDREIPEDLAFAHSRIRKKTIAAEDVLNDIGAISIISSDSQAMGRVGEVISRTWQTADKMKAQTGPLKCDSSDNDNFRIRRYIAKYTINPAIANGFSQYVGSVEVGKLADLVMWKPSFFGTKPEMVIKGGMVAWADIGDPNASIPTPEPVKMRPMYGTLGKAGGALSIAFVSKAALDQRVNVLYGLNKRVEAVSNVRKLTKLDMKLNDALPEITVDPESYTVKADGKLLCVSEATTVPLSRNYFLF
Chain of Helicobacter pylori urease (P14916 whole entry): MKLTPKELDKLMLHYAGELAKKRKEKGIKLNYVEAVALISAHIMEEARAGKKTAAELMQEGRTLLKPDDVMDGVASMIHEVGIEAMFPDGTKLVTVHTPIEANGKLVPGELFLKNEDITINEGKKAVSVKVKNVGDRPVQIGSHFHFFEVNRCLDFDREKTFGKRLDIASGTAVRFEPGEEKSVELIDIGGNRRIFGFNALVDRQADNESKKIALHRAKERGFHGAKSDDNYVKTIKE
Chain of Helicobacter pylori urease (P69996 whole entry): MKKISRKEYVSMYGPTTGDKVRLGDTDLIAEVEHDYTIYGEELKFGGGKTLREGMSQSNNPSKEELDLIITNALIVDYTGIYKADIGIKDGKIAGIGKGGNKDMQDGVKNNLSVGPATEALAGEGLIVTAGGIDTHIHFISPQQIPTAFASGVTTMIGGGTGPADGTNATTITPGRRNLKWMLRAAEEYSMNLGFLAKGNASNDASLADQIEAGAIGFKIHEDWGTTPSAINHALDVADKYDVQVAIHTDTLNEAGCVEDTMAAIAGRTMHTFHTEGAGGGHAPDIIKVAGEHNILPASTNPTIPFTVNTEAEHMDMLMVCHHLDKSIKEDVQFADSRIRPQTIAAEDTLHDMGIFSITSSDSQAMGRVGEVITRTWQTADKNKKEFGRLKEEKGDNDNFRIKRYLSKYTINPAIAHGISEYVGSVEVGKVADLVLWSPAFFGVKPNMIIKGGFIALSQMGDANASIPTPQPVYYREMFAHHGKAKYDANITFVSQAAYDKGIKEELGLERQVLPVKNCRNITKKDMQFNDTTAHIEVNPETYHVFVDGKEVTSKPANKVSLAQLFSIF

`O=c1[nH]sc2ccccc12` [BIT, 1,2-benzoisothiazol-3 (2H)-one] was tested, and the “anti-Helicobacter pylori activity (eradication rate)” value [1] was “stronger than that of MN”, the IC50 [2] was 132 µM and the IC50 [3] was 55 µM.
